This note sets out measurements from US12091656B2, “Method for generating higher order genome editing libraries” (Johann Wolfgang Goethe-Universität Frankfurt am Main, priority 2016, dated 2024).

The structures appear in SMILES notation.

The test system of data set [1] is RPE1 cells. The data set can be described thus: Doxorubicin effect on RPE1 cell viability (unperturbed conditions). It counts as cell-based, human. The conditions noted are these: within 4 days.
Data set [2] has as its system RPE1 cells. The data set can be described thus: Titration of CYSLTR2 antagonists against Doxorubicin, AlamarBlue cell viability assay. It is filed as cell-based, human. As to conditions: 4 days. On the procedure: FIG. 6: Identifying Doxorubicin resistance with an optimized 3Cs-gRNA library. A) Experimental scheme illustrating the usage of hTERT-RPE1 cells, transduced with lentiviral particles (MOI=1) and selected with 1 μM Doxorubicin for three weeks. B) NGS- and bioinformatically-based identification of Doxorubicin-resistance inducing gRNAs and their location within annotated human genomic DNA. C) The CYSLTR2 gene is a reproducible protein-coding hit for which two chemical inhibitors are commercially available. Both inhibitors are titrated versus increasing concentrations of Doxorubicin and induce resistance to Doxorubicin.
Of all remaining gRNAs, 45.6% are located in coding regions, 22.2% are in introns and 10.5% are in non-coding (RNA coding) regions (FIG. 6b). However, 21.7% of gRNAs are located in genomic regions for which no biotype could be assigned, indicating a gap of knowledge for those regions (FIG. 6b). To validate some of the findings in a CRISPR/Cas independent manner, the protein-coding hit gene CYSLTR2 was chosen for which two chemical antagonists are commercially available. The inventors titrated increasing concentrations of Doxorubicin against increasing concentrations of the two compounds (BayCysLTR2 and Bay u9773) and incubated drug exposed RPE1 cells for 4 days after which they were subject to the cell viability assays AlamarBlue.
(In general: Resazurin is reduced to fluorescent resorufin, in cell work by metabolically active cells.)

In the case of `COc1cccc2c1C(=O)c1c(O)c3c(c(O)c1C2=O)C[C@@](O)(C(=O)CO)C[C@@H]3O[C@H]1C[C@H](N)[C@H](O)[C@H](C)O1` [Doxorubicin], in the data set with RPE1 cells [1], the “reduction of RPE1 cell viability” value was “robust and dose-dependent reduction of RPE1 cell viability”.

`CCCCC/C=C\C\C=C/C=C/C=C/[C@@H](Sc1ccc(C(=O)O)cc1)[C@@H](O)CCCC(=O)O` [Bay u9773]: in the data set with RPE1 cells [2] (FIG. 6c), the “strength of the reversion effect compared with the other CYSLTR2 antagonist” value is on record as “reproducibly stronger effect”. In the data set on RPE1 cells [2] (increasing concentrations titrated against increasing Doxorubicin), the “reversion of the cytotoxic effect of Doxorubicin” value was “able to revert the cytotoxic effect of Doxorubicin in a dose-dependent manner”.
